Data as given in ChEMBL document CHEMBL5137049, “Discovery of a Novel Small-Molecule Inhibitor Disrupting TRBP-Dicer Interaction against Hepatocellular Carcinoma via the Modulation of microRNA Biogenesis” (J Med Chem, 2022).
Active and inactive are the calls of the source. No cut-off for these calls is given here.

Assays:
HCCLM3 [1] = assay: Upregulation of let-7 expression in human HCCLM3 cells at 10 uM by qRT-PCR analysis; assay type: functional, cell-based
HeLa [2] = assay: Downregulation of miR-21 expression in human HeLa cells at 10 uM incubated for 6 hrs by qRT-PCR analysis; assay type: functional
HeLa [3] = assay: Upregulation of pri-miR-21 in human HeLa cells at 10 uM incubated for 6 hrs by qRT-PCR analysis; assay type: functional, cell-based
SK-HEP1 [4] = assay: Inhibition of cell migration in human SK-HEP1 cells assessed as reduction of cell mobility at 1 to 25 uM measured at 24 hrs by well scratch method; assay type: functional, cell-based; details: dose 1-25 µM
Homo sapiens [5] = species on record: Homo sapiens; assay: Effect on ADAR1-Dicer interaction (unknown origin) assessed as increase in binding of ADAR1 to Dicer at 1 to 25 uM by Western blotting analysis; details: dose 1-25 µM
HepG2 [6] = assay: Upregulation of pri-miR-221 in human HepG2 cells at 10 uM incubated for 6 hrs by qRT-PCR analysis; assay type: functional, cell-based
HCCLM3 [7] = assay: Antiproliferative activity against human HCCLM3 cells assessed as inhibition of cell growth incubated for 72 hrs by CellTiter-luminescence assay; assay type: functional, cell-based
HCCLM3 [8] = assay: Downregulation of miR-135 expression in human HCCLM3 cells at 10 uM by qRT-PCR analysis; assay type: functional, cell-based
MHCC97-L [9] = assay: Downregulation of miR-18a expression in human MHCC97-L cells at 10 uM by qRT-PCR analysis; assay type: functional, cell-based
HeLa [10] = assay: Inhibition of microRNA in human HeLa cells transfected with pCI-neo-luciferase-miR-21 plasmid assessed as change in luciferase signal by measuring relative luciferase unit by luciferase reporter assay; assay type: cell-based
HCCLM3 [11] = assay: Downregulation of miR-18a expression in human HCCLM3 cells at 10 uM by qRT-PCR analysis; assay type: functional, cell-based
[12] = Toxicity in SCID mouse xenografted with human MHCC97-L cells assessed as effect on lung at 10 to 50 mg/kg, ip administered every 2 days for 4 weeks by hematoxyin-eosin staining based analysis; assay type: organism-based; details: in vivo, 672 h, dose 10-50 mg/kg
HepG2 [13] = assay: Upregulation of pre-miR-122 in human HepG2 cells at 10 uM incubated for 6 hrs by qRT-PCR analysis; assay type: functional, cell-based
SK-HEP1 [14] = assay: Downregulation of ZEB2 expression in human SK-HEP1 cells at 1 to 25 uM by Western blotting analysis; assay type: functional, cell-based; details: dose 1-25 µM
[15] = Acute toxicity in KM mouse assessed as effect on kidney at 100 mg/kg, ip administered for 7 consecutive days by hematoxyin-eosin staining based analysis; assay type: organism-based; details: in vivo, 168 h, time 7 day
HepG2 [16] = assay: Downregulation of miR-21 expression in human HepG2 cells at 10 uM incubated for 6 hrs by qRT-PCR analysis; assay type: functional
[17] = Acute toxicity in KM mouse assessed as effect on liver at 100 mg/kg, ip administered for 7 consecutive days by hematoxyin-eosin staining based analysis; assay type: organism-based; details: in vivo, 168 h, time 7 day
HepG2 [18] = assay: Upregulation of pri-miR-21 in human HepG2 cells at 10 uM incubated for 6 hrs by qRT-PCR analysis; assay type: functional, cell-based
HeLa [19] = assay: Upregulation of pri-miR-155 in human HeLa cells at 10 uM incubated for 6 hrs by qRT-PCR analysis; assay type: functional, cell-based
HepG2 [20] = assay: Upregulation of pre-miR-221 in human HepG2 cells at 10 uM incubated for 6 hrs by qRT-PCR analysis; assay type: functional, cell-based
HeLa [21] = assay: Upregulation of pri-miR-214 in human HeLa cells at 10 uM incubated for 6 hrs by qRT-PCR analysis; assay type: functional, cell-based
SK-HEP1 [22] = assay: Downregulation of vimentin expression in human SK-HEP1 cells at 1 to 25 uM by Western blot analysis; assay type: functional, cell-based; details: dose 1-25 µM
MHCC97-L [23] = assay: Inhibition of cell migration in human MHCC97-L cells at 1 to 25 uM measured after 24 hrs by crystal violet staining based transwell assay; assay type: functional; details: dose 1-25 µM
HepG2 [24] = assay: Upregulation of pre-miR-21 in human HepG2 cells at 10 uM incubated for 6 hrs by qRT-PCR analysis; assay type: functional, cell-based
HeLa [25] = assay: Downregulation of miR-155 expression in human HeLa cells at 10 uM incubated for 6 hrs by qRT-PCR analysis; assay type: functional
SK-HEP1 [26] = assay: Downregulation of mature miR-21 expression in human SK-HEP1 cells at 10 uM incubated for 24 hrs; assay type: functional, cell-based
MHCC97-L [27] = assay: Antitumor activity against human MHCC97-L cells xenografted in SCID mouse assessed as reduction in tumor proliferation at 10 to 50 mg/kg, ip administered every 2 days for 4 weeks; assay type: functional, organism-based; details: dose 10-50 mg/kg
MHCC97-L [28] = assay: Inhibition of cell invasion in human MHCC97-L cells at 1 to 25 uM measured after 24 hrs by crystal violet staining based transwell assay; assay type: functional; details: dose 1-25 µM
[29] = Inhibition of microRNA in human HeLa cells transfected with pCI-neo-luciferase-miR-21 plasmid assessed as change in luciferase signal incubated for 24 hrs by luciferase reporter assay; assay type: cell-based
HCCLM3 [30] = assay: Upregulation of miR-125 expression in human HCCLM3 cells at 10 uM by qRT-PCR analysis; assay type: functional, cell-based
SK-HEP1 [31] = assay: Downregulation of vimentin expression level in TRBP siRNA transfected human SK-HEP1 cells incubated for 48 hrs by Western blotting analysis; assay type: functional, cell-based
[32] = Toxicity in SCID mouse xenografted with human MHCC97-L cells assessed as effect on heart at 10 to 50 mg/kg, ip administered every 2 days for 4 weeks by hematoxyin-eosin staining based analysis; assay type: organism-based; details: in vivo, 672 h, dose 10-50 mg/kg
Mus musculus = assay: Downregulation of beta-catenin expression in liver of SCID mouse xenografted with human SK-HEP1 cells at 10 to 50 mg/kg, ip administered every 2 days for 4 weeks by immunohistochemical staining analysis; assay type: functional, organism-based; details: dose 10-50 mg/kg
HepG2 [33] = assay: Downregulation of miR-122 expression in human HepG2 cells at 10 uM incubated for 6 hrs by qRT-PCR analysis; assay type: functional
SK-HEP1 [34] = assay: Downregulation of N-cadherin expression level in TRBP siRNA transfected human SK-HEP1 cells incubated for 48 hrs by Western blotting analysis; assay type: functional, cell-based
SK-HEP1 [35] = assay: Upregulation of let-7 expression in human SK-HEP1 cells at 10 uM by qRT-PCR analysis; assay type: functional, cell-based
SK-HEP1 [36] = assay: Downregulation of miR-135 expression in human SK-HEP1 cells at 10 uM by qRT-PCR analysis; assay type: functional, cell-based
HepG2 [37] = assay: Upregulation of pri-miR-122 in human HepG2 cells at 10 uM incubated for 6 hrs by qRT-PCR analysis; assay type: functional, cell-based
SK-HEP1 [38] = assay: Downregulation of beta-catenin expression level in TRBP siRNA transfected human SK-HEP1 cells incubated for 48 hrs by Western blotting analysis; assay type: functional, cell-based
Homo sapiens [39] = species on record: Homo sapiens; assay: Effect on PACT-Dicer interaction (unknown origin) assessed as increase in binding of PACT to Dicer at 1 to 25 uM by Western blotting analysis; details: dose 1-25 µM
SK-HEP1 [40] = assay: Downregulation of miR-18a expression in human SK-HEP1 cells at 10 uM by qRT-PCR analysis; assay type: functional, cell-based

## CCOC(=O)c1nc(-c2ccc(OC)cc2)oc1C
HCCLM3 [1]
  Activity: Active
HeLa [2]
  Activity: 60%
HeLa [3]
  Activity: Active
SK-HEP1 [4]
  inhibition: Active
Homo sapiens [5]
  Activity: Active
HepG2 [6]
  Activity: Active
HCCLM3 [7]
  Activity: Active
HCCLM3 [8]
  Activity: Active
MHCC97-L [9]
  Activity: Active
HeLa [10]
  RLU: 5.68
HCCLM3 [11]
  Activity: Active
[12]
  Activity: Non-Toxic
HepG2 [13]
  Activity: Active
SK-HEP1 [14]
  Activity: Active
[15]
  Activity: Non-Toxic
HepG2 [16]
  Activity: 60%
[17]
  Activity: Non-Toxic
HepG2 [18]
  Activity: Active
HeLa [19]
  Activity: Active
HepG2 [20]
  Activity: Active
HeLa [21]
  Activity: Active
SK-HEP1 [22]
  Activity: Active
MHCC97-L [23]
  inhibition: Active
HepG2 [24]
  Activity: Active
HeLa [25]
  Activity: 60%
SK-HEP1 [26]
  Activity: Active
MHCC97-L [27]
  Activity: Active
MHCC97-L [28]
  inhibition: Active
[29]
  EC50: 1.38 µM
HCCLM3 [30]
  Activity: Active
SK-HEP1 [31]
  Activity: Active
[32]
  Activity: Non-Toxic
Mus musculus
  Activity: Active
HepG2 [33]
  Activity: 60%
SK-HEP1 [34]
  Activity: Active
SK-HEP1 [35]
  Activity: Active
SK-HEP1 [36]
  Activity: Active
HepG2 [37]
  Activity: Active
SK-HEP1 [38]
  Activity: Active
Homo sapiens [39]
  Activity: Active
SK-HEP1 [40]
  Activity: Active
